# Test results published in patent US5962314A, “Calcium receptor-active molecules” (priority 1997, dated 1999).
# “Also recorded” adds a separate entry of the source. No end group written: not given here.
# What was measured:
# [1] = target: T1, parathyroid cell calcium receptor (Bos taurus, UniProt P35384); assay: Cl- current in Xenopus oocytes injected with bovine parathyroid cell mRNA; format: cell-based; parameters: Whole pieces of gland were used to prepare mRNA that directs the expression of the calcium receptor in Xenopus oocytes; expressed in transfected cells; host or cells: Xenopus laevis oocytes injected with parathyroid poly(A)+ mRNA; conditions: oocytes expressing parathyroid calcium receptor, fendiline 100 μM
# T1 sequence (P35384 20-1085): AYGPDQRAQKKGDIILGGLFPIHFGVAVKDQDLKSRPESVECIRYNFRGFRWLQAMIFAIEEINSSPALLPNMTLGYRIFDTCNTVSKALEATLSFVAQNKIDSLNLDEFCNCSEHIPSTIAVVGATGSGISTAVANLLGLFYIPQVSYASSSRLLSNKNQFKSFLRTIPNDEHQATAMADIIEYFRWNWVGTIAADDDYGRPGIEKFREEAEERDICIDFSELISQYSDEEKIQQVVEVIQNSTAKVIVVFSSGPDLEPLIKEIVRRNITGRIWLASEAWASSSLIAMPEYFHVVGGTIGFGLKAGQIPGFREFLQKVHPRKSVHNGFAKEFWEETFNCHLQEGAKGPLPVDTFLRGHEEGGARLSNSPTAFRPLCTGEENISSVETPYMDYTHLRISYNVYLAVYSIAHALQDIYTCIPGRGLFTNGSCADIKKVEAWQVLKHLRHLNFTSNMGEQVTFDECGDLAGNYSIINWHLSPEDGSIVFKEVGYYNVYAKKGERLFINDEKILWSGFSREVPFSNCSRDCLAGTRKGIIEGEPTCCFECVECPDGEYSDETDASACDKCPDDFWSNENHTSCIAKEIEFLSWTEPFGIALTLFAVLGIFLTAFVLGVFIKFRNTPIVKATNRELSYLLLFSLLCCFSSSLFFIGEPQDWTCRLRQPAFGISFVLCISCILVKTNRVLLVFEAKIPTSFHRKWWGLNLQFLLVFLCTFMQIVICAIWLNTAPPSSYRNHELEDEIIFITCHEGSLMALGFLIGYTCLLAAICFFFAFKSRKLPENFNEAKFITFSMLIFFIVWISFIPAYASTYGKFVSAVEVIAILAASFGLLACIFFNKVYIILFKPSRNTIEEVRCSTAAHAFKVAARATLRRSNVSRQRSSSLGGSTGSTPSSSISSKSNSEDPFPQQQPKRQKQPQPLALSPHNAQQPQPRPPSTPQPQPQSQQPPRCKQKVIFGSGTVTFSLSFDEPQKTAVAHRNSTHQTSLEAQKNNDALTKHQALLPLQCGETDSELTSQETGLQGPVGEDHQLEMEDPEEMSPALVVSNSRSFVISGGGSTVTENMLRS
# Experimental: (§1) Following incubation, an oocyte was placed into a 100-μl plastic chamber and superfused with MBS at a flow rate of 0.5 ml/min using a peristaltic pump. Test molecules or inorganic polycations were added by rapidly moving the tubing into different buffers. Recording and current-passing electrodes were constructed from thin-wall capillary tubing pulled to a resistance of 1-3 Mohms and filled with 3 M KCl. […] Currents were recorded directly onto a strip chart recorder.
# PTH = PTH levels in rats; format: in vivo, rat; conditions: NPS 467, preliminary studies
# Source text: The fall in blood Ca^2+ at this time was paralleled by a proportional fall in the levels of blood total calcium.
# serum ionized calcium = assay: serum ionized Ca2+ in rats; format: in vivo, rat; conditions: NPS 467 i.p., low calcium diet
# Experimental: (§2) Compounds shown to activate the bovine parathyroid cell calcium receptor in vitro were tested for hypocalcemic activity in vivo. Male Sprague-Dawley rats (200 g) were maintained on a low calcium diet for one week prior to receiving test substance or vehicle as control. Blood was collected from the tail vein three hours after the intra-peritoneal administration of NPS 467. […] Serum total calcium, albumin and phosphate were measured by techniques well known in the art.
# Rats (male, Sprague-Dawley, 250-300 g) were fed standard rat chow and fasted overnight prior to the experiment. NPS R-467 was suspended in corn oil and administered as a single oral dose through a gavage needle. Three hours later a sample of blood was taken from the tail vein and assessed for ionized Ca^2+ levels.
# [2] = system: serum albumin or phosphate; assay: serum albumin and phosphate in rats; format: in vivo, rat; conditions: i.p.
# Experimental: as §2
# calcium receptor = target: T2, calcium receptor (Homo sapiens, UniProt P41180); assay: Xenopus oocytes injected with human parathyroid cell mRNA; format: cell-based; conditions: hexacyclen 135 μM; neomycin 100 μM; NPS 382 5 mM
# T2 sequence (P41180 20-1078): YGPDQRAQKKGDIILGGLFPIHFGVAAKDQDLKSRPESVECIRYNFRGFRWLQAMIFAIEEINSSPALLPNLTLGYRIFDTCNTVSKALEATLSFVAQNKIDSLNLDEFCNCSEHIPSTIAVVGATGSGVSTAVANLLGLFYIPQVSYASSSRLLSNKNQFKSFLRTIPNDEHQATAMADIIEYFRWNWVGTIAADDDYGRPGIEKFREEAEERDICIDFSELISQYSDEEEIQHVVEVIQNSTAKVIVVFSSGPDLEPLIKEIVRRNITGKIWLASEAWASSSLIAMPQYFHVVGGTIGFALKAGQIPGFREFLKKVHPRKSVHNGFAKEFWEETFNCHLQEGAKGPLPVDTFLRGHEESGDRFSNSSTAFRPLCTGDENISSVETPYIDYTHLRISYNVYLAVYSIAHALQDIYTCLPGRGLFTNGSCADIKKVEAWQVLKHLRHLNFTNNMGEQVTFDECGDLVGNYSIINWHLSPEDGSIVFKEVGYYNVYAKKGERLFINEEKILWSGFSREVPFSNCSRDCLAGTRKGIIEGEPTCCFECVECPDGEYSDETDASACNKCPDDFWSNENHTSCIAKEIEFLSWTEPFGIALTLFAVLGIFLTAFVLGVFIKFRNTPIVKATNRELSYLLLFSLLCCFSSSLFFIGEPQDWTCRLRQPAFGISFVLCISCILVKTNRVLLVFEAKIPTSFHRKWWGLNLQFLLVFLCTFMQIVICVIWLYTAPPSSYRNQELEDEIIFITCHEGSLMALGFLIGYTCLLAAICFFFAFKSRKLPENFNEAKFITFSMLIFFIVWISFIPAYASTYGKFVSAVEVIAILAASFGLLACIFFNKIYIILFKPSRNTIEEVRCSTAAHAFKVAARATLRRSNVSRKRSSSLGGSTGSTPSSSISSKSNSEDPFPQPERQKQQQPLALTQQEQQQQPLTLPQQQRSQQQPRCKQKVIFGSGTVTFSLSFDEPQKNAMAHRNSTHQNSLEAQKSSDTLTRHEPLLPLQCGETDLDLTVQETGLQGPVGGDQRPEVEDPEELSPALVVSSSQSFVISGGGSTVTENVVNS
# Experimental: Oocytes were injected with poly(A)^+ -enriched mRNA from human parathyroid tissue (hyperplastic glands from a case of secondary HPT).
# as §1
# Using this screen allows one to test for an action directly on the calcium receptor. Oocytes expressing the calcium receptor also responded to several molecules active on intact parathyroid cells when screened as follows. […] This offers rather compelling evidence showing that these molecules act on the calcium receptor or on some other protein intimately associated with its function.
# [3] = target: T1, parathyroid cell calcium receptor; assay: cell-based; format: cell-based
# Experimental: For example,. bovine parathyroid cells loaded with fura-2 are initially suspended in buffer containing 0.5 mM CaCl2. A test substance is added to the cuvette in a small volume (5-15 μl) and changes in the fluorescence signal are measured. Cumulative increases in the concentration of the test substance are made in the cuvette until some predetermined concentration is achieved or no further changes in fluorescence are noted.
# Human parathyroid glands, were obtained from patients undergoing surgical removal of parathyroid tissue for primary or uremic hyperparathyroidism (uremic HPT), and were treated similarly to bovine tissue.
# The cells were then pelleted, resuspended in the same buffer, but lacking the ester, and incubated a further 15 minutes at 37° C. The cells were subsequently washed twice with PCB containing 0.5 mM CaCl2 and 0.5% BSA and maintained at room temperature (about 20° C.). Immediately before use, the cells were diluted five-fold with prewarmed 0.5 mM CaCl2 -PCB to obtain a final BSA concentration of 0.1%. The concentration of cells in the cuvette used for fluorescence recording was 1-2×10^6 /ml.
# The fluorescence of indicator-loaded cells was measured at 37° C. in a spectrofluorimeter (Biomedical Instrumentation Group, University of Pennsylvania, Philadelphia, Pa.) equipped with a thermostated cuvette holder and magnetic stirrer using excitation and emission wavelengths of 340 and 510 nm, respectively. […] Leakage of dye is dependent on temperature and most occurs within the first 2 minutes after warming the cells in the cuvette. Dye leakage increases only very slowly thereafter. To correct the calibration for dye leakage, cells were placed in the cuvette and stirred at 37° C. for 2-3 minutes. The cell suspension was then removed, the cells pelleted, and the supernatant returned to a clean cuvette. […] This estimate was subtracted from the apparent Fmin.
# [4] = target: T1, parathyroid cell calcium receptor; assay: block of extracellular Ca2+-induced increases in [Ca2+]i in bovine parathyroid cells; format: cell-based
# inositol phosphates = assay: inositol phosphate formation in parathyroid cells; format: cell-based, bovine; conditions: 30 seconds
# Experimental: After 30 seconds, the reaction was terminated by the addition of CHCl3 :MeOH:HCl and IP1 (circles) and IP3 (triangles) separated by anion exchange chromatography. Each point is the mean of 2 experiments, each performed in triplicate.
# This section describes procedures measuring inositol phosphate formation. Membrane phospholipids were labeled by incubating parathyroid cells with 4 μCi/ml ^3 H-myo-inositol for 20-24 hours. Cells were then washed and resuspended in PCB containing 0.5 mM CaCl2 and 0.1% BSA. Incubations were performed in microfuge tubes in the absence or presence of various concentrations of organic polycation for different times. Reactions were terminated by the addition of 1 ml chloroform-methanol-12 N HCl (200:100:1; v/v/v). Aqueous phytic acid hydrolysate (200 μl; 25 μg phosphate/tube). The tubes were centrifuged and 600 μl of the aqueous phase was diluted into 10 ml water.
# Inositol phosphates were separated by ion-exchange chromatography using AG1-X8 in either the chloride- or formate-form. When only IP3 levels were to be determined, the chloride-form was used, whereas the formate form was used to resolve the major inositol phosphates (IP3, IP2, and IP1). […] The last eluate was diluted and counted. […] The eluted samples from the formate columns were rotary evaporated, the residues brought up in cocktail, and counted.
# bovine parathyroid cells = assay: PTH secretion from bovine parathyroid cells; format: cell-based
# Experimental: PTH secretion was measured by first suspending cells in PCB containing 0.5 mM CaCl2 and 0.1% BSA.
# [5] = system: osteoclast calcium receptor; assay: [Ca2+]i in indo-1-loaded rat osteoclasts; format: cell-based
# [6] = system: parathyroid calcium receptors; assay: response of calcium receptor-transfected HEK293, CHO and JEG-3 cells; format: cell-based
# Experimental: Functional calcium receptor expression was assessed by loading cells with fura-2 and measuring changes in intracellular calcium levels after addition of calcium receptor agonists. Control constructs were prepared by cloning the substance K receptor and the M1 muscarinic receptor cDNAs into similar commercial vectors as described above. Control constructs were transfected into the various cell lines described above, and the response of the cells containing the control constructs to substance K or to carbachol, respectively, was measured. […] Neither control responded to increases in extracellular calcium.
# cyclic AMP = format: cell-based, bovine
# Experimental: Cells were incubated as above for PTH secretion studies and at the end of the incubation, a 0.15-ml sample was taken and transferred to 0.85 ml of hot (70° C.) water and heated at this temperature for 5-10 minutes. The tubes were subsequently frozen and thawed several times and the cellular debris sedimented by centrifugation. Portions of the supernatant were acetylated and cyclic AMP concentrations determined by radioimmunoassay.
# Each value is the mean±SEM of three experiments.
compound,measurement,setting,value
CC(NCCC(c1ccccc1)c1ccccc1)c1ccccc1 (racemic) [Fendiline],effect on Cl- current / intracellular Ca2+,[1],evokes the mobilization of intracellular Ca^2+
same,effect on Cl- current / intracellular Ca2+,[1]; listed as fendiline,evokes oscillatory increases in Cl^-; also recorded: elicits oscillatory increases in Cl^-
COc1cccc(C(C)NCCCc2ccccc2)c1 (racemic) [NPS 467],effect on circulating PTH,PTH,dose-dependent reduction in circulating levels of PTH
same,effect on serum or whole blood Ca2+,serum ionized calcium,maximal within three hours
same,effect on serum or whole blood Ca2+,serum ionized calcium; listed as NPS-467,dose-dependent reduction in serum or whole blood Ca^2+
same,effect on serum albumin or phosphate,[2],no change in serum albumin or phosphate levels
"C1CNCCNCCNCCNCCNCCN1 [Hexacyclen, 1,4,7,10,13,16-hexaaza-cyclooctadecane]",mobilization of intracellular Ca2+ in oocytes,calcium receptor,caused the mobilization of intracellular Ca^2+
same,potency increase relative to pentaethylenehexamine,[3]; ring structure vs straight chain,25 fold
NCCCCCCCCCCCCNC(=O)Cc1ccc(O)cc1O [NPS 021],effect on extracellular Ca2+-elicited increase in [Ca2+]i,[4]; 200 μM,inhibited the increase in [Ca^2+ ]i
same,effect on basal [Ca2+]i,[4]; 0.5 mM CaCl2,caused no change in [Ca^2+ ]i; also recorded: does not by itself cause any change in [Ca^2+ ]i
same,effect on extracellular Ca2+-evoked increase in [Ca2+]i,[4]; around 500 μM,abolished
"NCCCN(CCCN)CCCNCCCCNCCCN(CCCN)CCCN [NPS 382, N^1,N^1,N^5,N^14,N^14-tetrakis-(3-aminopropyl)spermine]",mobilization of intracellular Ca2+ in oocytes,calcium receptor,also effective
same,effect on [Ca2+]i,[3],mobilize intracellular Ca^2+
same,"relative potency, in words",[3]; parathyroid cells,about twice as potent as NPS 381
"CCCCCCCCCCCCCC(=O)O[C@@H]1[C@@H](C)[C@@]2(O)[C@@H](C=C(CO)C[C@]3(O)C(=O)C(C)=C[C@@H]23)[C@@H]2C(C)(C)[C@]12OC(C)=O [PMA, phorbol myristate acetate]",effect on inositol phosphate formation,inositol phosphates,depresses the formation of IP1
same,effect on concentration-response curves for inhibition of PTH secretion,"bovine parathyroid cells; 100 nM, 30 minutes",shifts to the right the concentration-response curves
same,effect on concentration-response curves for increases in [Ca2+]i,[3]; 100 nM,shift to the right in the concentration-response curve; also recorded: shifts to the right the concentration-response curves
CC(Cc1ccccc1)NCCC(c1ccccc1)c1ccccc1 (stereo not drawn) [Prenylamine],effect on [Ca2+]i in osteoclasts,[5],mobilization of [Ca^2+ ]i
NCCCCNCCCN [Spermidine],effect on [Ca2+]i in osteoclasts,[5],none of these caused any large increase in [Ca^2+ ]i
same,effect on [Ca2+]i,[3],mobilize intracellular Ca^2+
C[N+](C)(C)CCOC(N)=O [carbachol],response of calcium receptor-transfected cells,[6],did not respond
protamine,effect on inositol phosphate formation,inositol phosphates,increases the formation of inositol phosphates; also recorded: rapid (within 30 seconds) increase in the formation of IP3
same,effect on PTH secretion,bovine parathyroid cells; bovine parathyroid cells,inhibit PTH secretion; also recorded: inhibited PTH secretion to the same extent as extracellular Ca^2+
same,effect on [Ca2+]i,[3],evoked rapid and transient increases in [Ca^2+ ]i
same,effect on intracellular Ca2+,"[3]; neomycin B 30 μM, protamine 1 μg/ml",mobilization of intracellular Ca^2+
same,effect on isoproterenol-induced increases in cyclic AMP,cyclic AMP,depressed isoproterenol-induced increases in cyclic AMP
"substance K: ligand of substance K receptor (HKTDSFVGLM; ends and bridges not checked; UniProt P20366 98-107, looked up)",response of calcium receptor-transfected cells,[6],did not respond
